In ChEMBL document CHEMBL3865816, “Design, synthesis and biological evaluation of novel azaspiro analogs of linezolid as antibacterial and antitubercular agents” (Eur J Med Chem, 2016):
≈ marks a conversion by molar mass, not a printed value.

Columns and labels:
Type in all cases: functional
Pseudomonas aeruginosa [1] = assay: Antibacterial activity against Pseudomonas aeruginosa NCIM 2036 measured after 8 hrs by spectrophotometric method; conditions: NCIM 2036, 8 h
Staphylococcus aureus [2] = assay: Antibacterial activity against Staphylococcus aureus NCIM 2079 measured after 12 hrs by spectrophotometric method; conditions: NCIM 2079, 12 h
Escherichia coli [3] = assay: Antibacterial activity against Escherichia coli NCIM 2688 measured after 8 hrs by spectrophotometric method; conditions: NCIM 2688, 8 h
Bacillus subtilis [4] = assay: Antibacterial activity against Bacillus subtilis NCIM 2010 measured after 12 hrs by spectrophotometric method; conditions: NCIM 2010, 12 h
[5] = system: Mycobacterium tuberculosis; assay: Antitubercular activity against dormant stage Mycobacterium tuberculosis H37Ra measured after 12 days by XTT assay; conditions: 288 h
Escherichia coli [6] = assay: Antibacterial activity against Escherichia coli NCIM 2688 at 30 ug/ml measured after 8 hrs by spectrophotometric method; conditions: NCIM 2688, 8 h
Escherichia coli [7] = assay: Antibacterial activity against Escherichia coli NCIM 2688 at 10 ug/ml measured after 8 hrs by spectrophotometric method; conditions: NCIM 2688, 8 h
Escherichia coli [8] = assay: Antibacterial activity against Escherichia coli NCIM 2688 at 3 ug/ml measured after 8 hrs by spectrophotometric method; conditions: NCIM 2688, 8 h
Pseudomonas aeruginosa [9] = assay: Antibacterial activity against Pseudomonas aeruginosa NCIM 2036 at 30 ug/ml measured after 8 hrs by spectrophotometric method; conditions: NCIM 2036, 8 h
Pseudomonas aeruginosa [10] = assay: Antibacterial activity against Pseudomonas aeruginosa NCIM 2036 at 10 ug/ml measured after 8 hrs by spectrophotometric method; conditions: NCIM 2036, 8 h
Pseudomonas aeruginosa [11] = assay: Antibacterial activity against Pseudomonas aeruginosa NCIM 2036 at 3 ug/ml measured after 8 hrs by spectrophotometric method; conditions: NCIM 2036, 8 h
Staphylococcus aureus [12] = assay: Antibacterial activity against Staphylococcus aureus NCIM 2079 at 30 ug/ml measured after 12 hrs by spectrophotometric method; conditions: NCIM 2079, 12 h
Staphylococcus aureus [13] = assay: Antibacterial activity against Staphylococcus aureus NCIM 2079 at 10 ug/ml measured after 12 hrs by spectrophotometric method; conditions: NCIM 2079, 12 h
Staphylococcus aureus [14] = assay: Antibacterial activity against Staphylococcus aureus NCIM 2079 at 3 ug/ml measured after 12 hrs by spectrophotometric method; conditions: NCIM 2079, 12 h
Bacillus subtilis [15] = assay: Antibacterial activity against Bacillus subtilis NCIM 2010 at 30 ug/ml measured after 12 hrs by spectrophotometric method; conditions: NCIM 2010, 12 h
Bacillus subtilis [16] = assay: Antibacterial activity against Bacillus subtilis NCIM 2010 at 10 ug/ml measured after 12 hrs by spectrophotometric method; conditions: NCIM 2010, 12 h
Bacillus subtilis [17] = assay: Antibacterial activity against Bacillus subtilis NCIM 2010 at 3 ug/ml measured after 12 hrs by spectrophotometric method; conditions: NCIM 2010, 12 h
[18] = system: Mycobacterium tuberculosis; assay: Antitubercular activity against dormant stage Mycobacterium tuberculosis H37Ra at 30 ug/ml measured after 12 days by XTT assay; conditions: 288 h
[19] = system: Mycobacterium tuberculosis; assay: Antitubercular activity against dormant stage Mycobacterium tuberculosis H37Ra at 10 ug/ml measured after 12 days by XTT assay; conditions: 288 h
[20] = system: Mycobacterium tuberculosis; assay: Antitubercular activity against dormant stage Mycobacterium tuberculosis H37Ra at 3 ug/ml measured after 12 days by XTT assay; conditions: 288 h

Structure (SMILES)	IC50 (Pseudomonas aeruginosa [1])	MIC (Pseudomonas aeruginosa [1])	IC50 (Staphylococcus aureus [2])	MIC (Staphylococcus aureus [2])	IC50 (Escherichia coli [3])	MIC (Escherichia coli [3])	IC50 (Bacillus subtilis [4])	MIC (Bacillus subtilis [4])	IC50 [5]	MIC [5]	inhibition at 30 µg/mL (Escherichia coli [6])	inhibition at 10 µg/mL (Escherichia coli [7])	inhibition at 3 µg/mL (Escherichia coli [8])	inhibition at 30 µg/mL (Pseudomonas aeruginosa [9])	inhibition at 10 µg/mL (Pseudomonas aeruginosa [10])	inhibition at 3 µg/mL (Pseudomonas aeruginosa [11])	inhibition at 30 µg/mL (Staphylococcus aureus [12])	inhibition at 10 µg/mL (Staphylococcus aureus [13])	inhibition at 3 µg/mL (Staphylococcus aureus [14])	inhibition at 30 µg/mL (Bacillus subtilis [15])	further results
COCC(=O)NC[C@H]1CN(c2ccc(N3CC4(COC4)C3)c(F)c2)C(=O)O1	> 100 µg/mL	> 100 µg/mL	> 100 µg/mL	> 100 µg/mL	> 100 µg/mL	> 100 µg/mL	> 100 µg/mL	> 100 µg/mL	> 100 µg/mL	> 100 µg/mL	66.6%	65.4%	61.5%	63.7%	37.1%	14.4%	98.8%	92.2%	72.3%	95.2%	inhibition at 10 µg/mL (Bacillus subtilis [16]): 77.7%; inhibition at 3 µg/mL (Bacillus subtilis [17]): 51.2%; inhibition at 30 µg/mL [18]: 50.1%; inhibition at 10 µg/mL [19]: -13.7%; inhibition at 3 µg/mL [20]: -22.9%
O=C1O[C@@H](CNS(=O)(=O)c2cc([N+](=O)[O-])ccc2Cl)CN1c1ccc(N2CC3(COC3)C2)c(F)c1	> 100 µg/mL	> 100 µg/mL	> 100 µg/mL	> 100 µg/mL	> 100 µg/mL	> 100 µg/mL	> 100 µg/mL	> 100 µg/mL	> 100 µg/mL	> 100 µg/mL	49.6%	15.8%	2.37%	68.6%	38.6%	-6.17%	89.5%	55%	42%	88.4%	inhibition at 10 µg/mL (Bacillus subtilis [16]): 62.1%; inhibition at 3 µg/mL (Bacillus subtilis [17]): 47%; inhibition at 30 µg/mL [18]: 59.6%; inhibition at 10 µg/mL [19]: 29.2%; inhibition at 3 µg/mL [20]: 24.4%
O=C(NC[C@H]1CN(c2ccc(N3CC4(COC4)C3)c(F)c2)C(=O)O1)c1cccnc1	> 100 µg/mL	> 100 µg/mL	1.03 µg/mL (≈ 2.5 µM)	18.3 µg/mL (≈ 44.3 µM)	0.67 µg/mL (≈ 1.62 µM)	8.33 µg/mL (≈ 20.2 µM)	> 100 µg/mL	> 100 µg/mL	> 100 µg/mL	> 100 µg/mL	94.8%	90.5%	84.8%	56.3%	49.5%	40.9%	96.2%	85.9%	78.2%	99.2%	inhibition at 10 µg/mL (Bacillus subtilis [16]): 77.1%; inhibition at 3 µg/mL (Bacillus subtilis [17]): 60.8%; inhibition at 30 µg/mL [18]: 63.1%; inhibition at 10 µg/mL [19]: 5.21%; inhibition at 3 µg/mL [20]: 3.2%
O=C1O[C@@H](CNC(=S)Nc2ccc([N+](=O)[O-])cc2)CN1c1ccc(N2CC3(COC3)C2)c(F)c1	> 100 µg/mL	> 100 µg/mL	> 100 µg/mL	> 100 µg/mL	> 100 µg/mL	> 100 µg/mL	> 100 µg/mL	> 100 µg/mL	> 100 µg/mL	> 100 µg/mL	65.5%	61%	51.8%	73.6%	41.8%	9.11%	81%	74.5%	66.7%	80.4%	inhibition at 10 µg/mL (Bacillus subtilis [16]): 76.2%; inhibition at 3 µg/mL (Bacillus subtilis [17]): 62.7%; inhibition at 30 µg/mL [18]: -13.5%; inhibition at 10 µg/mL [19]: 4.66%; inhibition at 3 µg/mL [20]: 9.41%
O=C(NC[C@H]1CN(c2ccc(N3CC4(COC4)C3)c(F)c2)C(=O)O1)c1ccc(C(F)(F)F)cc1	1.19 µg/mL (≈ 2.48 µM)	18.1 µg/mL (≈ 37.8 µM)	0.67 µg/mL (≈ 1.4 µM)	22.3 µg/mL (≈ 46.5 µM)	> 100 µg/mL	> 100 µg/mL	> 100 µg/mL	> 100 µg/mL	> 100 µg/mL	> 100 µg/mL	74.1%	59.7%	33.8%	98.3%	84.9%	74.9%	92.2%	84.4%	78.4%	95.8%	inhibition at 10 µg/mL (Bacillus subtilis [16]): 78.8%; inhibition at 3 µg/mL (Bacillus subtilis [17]): 65.4%; inhibition at 30 µg/mL [18]: -20.7%; inhibition at 10 µg/mL [19]: -4.6%; inhibition at 3 µg/mL [20]: -10.1%
O=C1O[C@@H](CNC(=O)C23CC4CC(CC(C4)C2)C3)CN1c1ccc(N2CC3(COC3)C2)c(F)c1	> 100 µg/mL	> 100 µg/mL	> 100 µg/mL	> 100 µg/mL	> 100 µg/mL	> 100 µg/mL	> 100 µg/mL	> 100 µg/mL	> 100 µg/mL	> 100 µg/mL	60.1%	43.3%	36.8%	40.7%	39.2%	49.6%	71.1%	55.5%	54.9%	69.8%	inhibition at 10 µg/mL (Bacillus subtilis [16]): 62%; inhibition at 3 µg/mL (Bacillus subtilis [17]): 51.3%; inhibition at 30 µg/mL [18]: 22.1%; inhibition at 10 µg/mL [19]: 4.41%; inhibition at 3 µg/mL [20]: 9.46%
O=C1O[C@@H](CNS(=O)(=O)c2cc(Cl)cc(Cl)c2)CN1c1ccc(N2CC3(COC3)C2)c(F)c1	> 100 µg/mL	> 100 µg/mL	> 100 µg/mL	> 100 µg/mL	> 100 µg/mL	> 100 µg/mL	> 100 µg/mL	> 100 µg/mL	> 100 µg/mL	> 100 µg/mL	25.4%	23.5%	36.8%	86.6%	67.2%	42.2%	74.2%	50.6%	55.1%	66.6%	inhibition at 10 µg/mL (Bacillus subtilis [16]): 56.1%; inhibition at 3 µg/mL (Bacillus subtilis [17]): 51%; inhibition at 30 µg/mL [18]: 23.2%; inhibition at 10 µg/mL [19]: -5.84%; inhibition at 3 µg/mL [20]: 8.02%
CC1(C)[C@@]2(C)CC[C@]1(C(=O)NC[C@H]1CN(c3ccc(N4CC5(COC5)C4)c(F)c3)C(=O)O1)OC2=O	> 100 µg/mL	> 100 µg/mL	> 100 µg/mL	> 100 µg/mL	> 100 µg/mL	> 100 µg/mL	> 100 µg/mL	> 100 µg/mL	> 100 µg/mL	> 100 µg/mL	39.5%	28.8%	20%	56.4%	55%	50.6%	70.2%	51.1%	50.6%	69.8%	inhibition at 10 µg/mL (Bacillus subtilis [16]): 53.8%; inhibition at 3 µg/mL (Bacillus subtilis [17]): 40.5%; inhibition at 30 µg/mL [18]: 15.6%; inhibition at 10 µg/mL [19]: -38.5%; inhibition at 3 µg/mL [20]: 9.81%
